Test results taken from the supplement of paper PMC8092582.
Where a name gives a salt, the structure may show the parent alone. ± gives the standard deviation of the averaged measurements.

System: HeLa
Assay: cell viability (CellTiter-Glo) relative to median of lowest-dilution wells of all drugs (fraction); higher = more viable cells
Description: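 HeLa control and CRISPR DDX11 knockout cells were seeded in 384-well plates and incubated for 72 h with each of 64 […] drugs at six concentrations. Viability was read with CellTiter-Glo and normalised to the median of the lowest (6th) dilution wells of all drugs. Two biological replicates (BR1, BR2) are averaged; the concentration unit is not stated.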

[1] = drug concentration (unit not stated): 0.12, genotype: DDX11 knockout
[2] = drug concentration (unit not stated): 0.12, genotype: control (DDX11 wild type)
[3] = drug concentration (unit not stated): 0.37, genotype: DDX11 knockout
[4] = drug concentration (unit not stated): 0.37, genotype: control (DDX11 wild type)
[5] = drug concentration (unit not stated): 1.11, genotype: DDX11 knockout
[6] = drug concentration (unit not stated): 1.11, genotype: control (DDX11 wild type)
[7] = drug concentration (unit not stated): 3.33, genotype: DDX11 knockout
[8] = drug concentration (unit not stated): 3.33, genotype: control (DDX11 wild type)
[9] = drug concentration (unit not stated): 10, genotype: DDX11 knockout
[10] = drug concentration (unit not stated): 10, genotype: control (DDX11 wild type)
[11] = drug concentration (unit not stated): 0.01, genotype: DDX11 knockout
[12] = drug concentration (unit not stated): 0.01, genotype: control (DDX11 wild type)
[13] = drug concentration (unit not stated): 0.04, genotype: DDX11 knockout
[14] = drug concentration (unit not stated): 0.04, genotype: control (DDX11 wild type)

SMILES	cell viability [1]	cell viability [2]	cell viability [3]	cell viability [4]	cell viability [5]	cell viability [6]	cell viability [7]	cell viability [8]	cell viability [9]	cell viability [10]	cell viability (drug concentration (unit not stated): 30, genotype: DDX11 knockout)	cell viability (drug concentration (unit not stated): 30, genotype: control (DDX11 wild type))	cell viability [11]	cell viability [12]	cell viability [13]	cell viability [14]
Cc1cc(Nc2cc(N3CCN(C)CC3)nc(Sc3ccc(NC(=O)C4CC4)cc3)n2)n[nH]1 [Tozasertib (VX-680)]	0.959 ± 0.016	0.978 ± 0.1	0.951 ± 0.025	1.1 ± 0.2	0.976 ± 0.087	1.03 ± 0.22	0.912 ± 0.048	1.02 ± 0.23	0.823 ± 0.04	0.975 ± 0.22	0.659 ± 0.067	0.764 ± 0.19	–	–	–	–
COc1cccc2c1C(=O)c1c(O)c3c(c(O)c1C2=O)C[C@@](O)(C(=O)CO)C[C@@H]3O[C@H]1C[C@H](N)[C@H](O)[C@H](C)O1 [Doxorubicin (Adriamycin)]	0.75 ± 0.18	0.96 ± 0.41	0.328 ± 0.4	0.679 ± 0.6	0.024 ± 0.0057	0.153 ± 0.2	0.0172 ± 0.0017	0.0179 ± 0.006	–	–	–	–	1.02 ± 0.03	0.9786 ± 0.0019	0.923 ± 0.087	0.986 ± 0.0043
Nc1nc2[nH]cc(CCc3ccc(C(=O)N[C@@H](CCC(=O)O)C(=O)O)cc3)c2c(=O)[nH]1 [Pemetrexed]	0.911 ± 0.26	0.98 ± 0.53	0.781 ± 0.21	0.814 ± 0.4	0.741 ± 0.18	0.756 ± 0.34	–	–	–	–	–	–	1 ± 0.099	0.99 ± 0.11	0.983 ± 0.29	0.903 ± 0.41
Nc1ccn([C@@H]2O[C@H](CO)[C@@H](O)C2(F)F)c(=O)n1 [Gemcitabine HCl (Gemzar)]	0.0501 ± 0.015	0.0767 ± 0.053	0.0439 ± 0.017	0.065 ± 0.04	0.0472 ± 0.028	0.0514 ± 0.028	–	–	–	–	–	–	0.0596 ± 0.017	0.0573 ± 0.021	0.0446 ± 0.0085	0.0383 ± 0.016
Nc1nc(Cl)nc2c1ncn2[C@H]1C[C@H](O)[C@@H](CO)O1 [Cladribine]	1.09 ± 0.077	1.2 ± 0.25	0.935 ± 0.024	1.06 ± 0.25	0.487 ± 0.34	0.468 ± 0.15	0.135 ± 0.12	0.103 ± 0.056	–	–	–	–	0.96 ± 0.03	0.977 ± 0.015	1.04 ± 0.035	1.04 ± 0.052
Cn1cnc2c(F)c(Nc3ccc(Br)cc3Cl)c(C(=O)NOCCO)cc21 [Selumetinib (AZD6244)]	0.963 ± 0.029	0.957 ± 0.085	0.9 ± 0.078	0.95 ± 0.15	0.902 ± 0.082	0.955 ± 0.12	0.855 ± 0.067	0.935 ± 0.22	0.744 ± 0.13	0.913 ± 0.38	–	–	–	–	0.991 ± 0.022	0.985 ± 0.059
COc1cc([C@@H]2c3cc4c(cc3[C@@H](O[C@@H]3O[C@@H]5CO[C@@H](C)O[C@H]5[C@H](O)[C@H]3O)[C@H]3COC(=O)[C@H]23)OCO4)cc(OC)c1O [Etoposide (VP-16)]	0.913 ± 0.1	0.985 ± 0.015	0.737 ± 0.18	0.978 ± 0.18	0.477 ± 0.24	0.842 ± 0.39	0.165 ± 0.14	0.35 ± 0.33	0.0411 ± 0.033	0.0423 ± 0.033	–	–	–	–	0.993 ± 0.062	0.992 ± 0.036
COC1=CC(c2cc3ccccc3[nH]2)=N/C1=C\c1[nH]c(C)cc1C [Obatoclax mesylate]	0.872 ± 0.087	1.05 ± 0.19	0.56 ± 0.044	0.728 ± 0.13	0.307 ± 0.026	0.415 ± 0.13	0.25 ± 0.017	0.344 ± 0.14	0.141 ± 0.062	0.0791 ± 0.041	–	–	–	–	1.07 ± 0.017	1.01 ± 0.056
COCC[n+]1c2c(n(Cc3cnccn3)c1C)C(=O)c1ccccc1C2=O [YM155 (Sepantronium bromide)]	0.0146 ± 0.00021	0.0177 ± 0.0016	0.0135 ± 0.00019	0.0166 ± 0.0028	0.0136 ± 0.00081	0.0158 ± 0.0023	–	–	–	–	–	–	0.0145 ± 0.002	0.015 ± 0.0031	0.0143 ± 0.0008	0.0164 ± 0.0034
